From EPA's ToxRefDB 2 come the findings set out here.

For one data set, the system named is rabbit. As to conditions: Prenatal developmental toxicity study, new zealand white, Oral, Gavage/Intubation, dose end: 18 GD.
The subject of data set [1] is rat. The following applies: Prenatal developmental toxicity study, sprague dawley, Oral, Gavage/Intubation, dose end: 16 GD.
Data set [2] has as its system mouse. As to conditions: Prenatal developmental toxicity study, cd1, Oral, Gavage/Intubation, dose end: 17 GD.
Data set [3] relates to mouse. The following applies: Carcinogenicity, cd1, Oral, Feed, dose end: 78 week.
In data set [4] the test system is rat. The following applies: Multigenerational reproductive toxicity study, wistar, Oral, Feed, dose end: 2 generation.
The subject of data set [5] is rat. As to conditions: Prenatal developmental toxicity study, other, Oral, Gavage/Intubation, dose end: 19 GD.
The test system of data set [6] is rat. As to conditions: Multigenerational reproductive toxicity study, sprague dawley, Oral, Gavage/Intubation, dose end: 2 generation.
[7] abbreviates: group: developmental, developmental / developmental malformation / bone / absent + developmental / developmental malformation / bone / full supernumerary.
The mark [8] stands for this setting: group: maternal, reproductive / reproductive performance / resorptions / resorptions + systemic / in life observation / body weight / body weight gain + ….
Where [9] appears, read: group: maternal, systemic / in life observation / clinical signs / respiration (dyspnea).
Setting [10] is: group: developmental, systemic / in life observation / body weight / fetal weight.
[11] abbreviates: group: maternal, systemic / in life observation / food consumption / food consumption.
Setting [12] is: group: maternal, systemic / in life observation / food consumption / food consumption + systemic / in life observation / body weight / body weight.
[13] abbreviates: group: developmental, developmental / developmental malformation / bone / supernumerary + systemic / in life observation / body weight / fetal weight.
[14] abbreviates: group: maternal, systemic / in life observation / body weight / body weight + systemic / in life observation / body weight / body weight gain + systemic / ….
The mark [15] stands for this setting: group: cholinesterase, cholinesterase / cholinesterase / cholinesterase / brain cholinesterase (che) + cholinesterase / cholinesterase / cholinesterase / ….
The mark [16] stands for this setting: group: systemic, systemic / in life observation / body weight / body weight + systemic / in life observation / body weight / body weight gain + systemic / in….
Where [17] appears, read: group: offspring, developmental / developmental landmark / preputial separation / preputial separation + systemic / in life observation / body weight / ….
The mark [18] stands for this setting: group: parental, systemic / pathology gross / eye / opacity + systemic / pathology microscopic / eye / inflammation + systemic / pathology microscopic / eye….
Setting [19] is: group: reproductive, reproductive / reproductive performance / estrous cycle / abnormal + reproductive / reproductive performance / estrous cycle / corpora lutea.
Where [20] appears, read: group: developmental, developmental / developmental malformation / bone / [other] + developmental / developmental malformation / bone / bipartite ossification + ….
The mark [21] stands for this setting: group: maternal, systemic / in life observation / body weight / body weight gain + systemic / in life observation / food consumption / food efficiency.
Where [22] appears, read: group: offspring, developmental / offspring survival late / viability index / viability index + systemic / in life observation / body weight / offspring (pup….
Where [23] appears, read: group: parental, systemic / pathology microscopic / liver / hypertrophy + systemic / pathology microscopic / kidney / regeneration + systemic / organ weight….
[24] abbreviates: group: parental, systemic / pathology microscopic / liver / hypertrophy + systemic / pathology microscopic / kidney / regeneration + systemic / pathology ….

Turning to `C=CCOC(Cn1ccnc1)c1ccc(Cl)cc1Cl.O=S(=O)(O)O` (stereo not given) [Imazalil sulfate], the LEL with rabbit (setting [7]) was 20 mg/kg/day; in the data set on rabbit (setting [9]), 5 mg/kg/day; in the data set on rat [1] (setting [10]) it was 80 mg/kg/day; in the data set with rat [1] (setting [12]) it was 40 mg/kg/day. In addition, the LOAEL (usually the lowest dose or exposure tested at which an adverse effect was seen) with rabbit (setting [7]) was above 20 mg/kg/day; in the data set with rabbit (setting [8]) it was 10 mg/kg/day; in the data set with rat [1] (setting [10]), 80 mg/kg/day; with rat [1] (setting [11]), 40 mg/kg/day. Moreover, the NEL in the data set on rabbit (setting [7]) was 10 mg/kg/day; in the data set with rabbit (setting [9]), below 5 mg/kg/day; in the data set on rat [1] (setting [10]), 40 mg/kg/day; with rat [1] (setting [12]), below 40 mg/kg/day. Besides, the NOAEL (as a rule, the highest tested level that showed no adverse finding) in the data set on rabbit (setting [7]) was at least 20 mg/kg/day; with rabbit (setting [8]), 5 mg/kg/day; in the data set with rat [1] (setting [10]) it was 40 mg/kg/day; in the data set with rat [1] (setting [11]), below 40 mg/kg/day.
In the case of `C=CC(=O)NCNC(=O)C=C` [N,N'-Methylenebisacrylamide], the LEL in the data set with mouse [2] (group: developmental, developmental / developmental malformation / bone / supernumerary) was found to be 10 mg/kg/day. Further, in the data set with mouse [2] (setting [13]), the LOAEL is above 30 mg/kg/day, the NEL came out at 3 mg/kg/day and the NOAEL is at least 30 mg/kg/day. In addition, in the data set with mouse [2] (setting [14]), the LOAEL is above 30 mg/kg/day, the NEL was determined as 3 mg/kg/day and the NOAEL is at least 30 mg/kg/day. The LEL in the data set on mouse [2] (group: maternal, systemic / in life observation / body weight / body weight + systemic / organ weight / liver / relative to body weight + systemic / organ …) was 10 mg/kg/day.
Turning to `CCN(CC)c1nc(C)cc(OP(=S)(OC)OC)n1` [Pirimiphos-methyl], in the data set on mouse [3] (setting [15]), the LEL came to 8.3 mg/kg/day, the LOAEL amounted to 8.3 mg/kg/day, the NEL is below 8.3 mg/kg/day and the NOAEL was below 8.3 mg/kg/day. In addition, in the data set with mouse [3] (setting [16]), the LEL was determined as 33 mg/kg/day, the lowest-observed-adverse-effect level (LOAEL) was determined as 33 mg/kg/day, the NEL is 8.3 mg/kg/day and the NOAEL was 8.3 mg/kg/day.
Turning to `CS(=O)(=O)c1ccc(C(=O)C2C(=O)CCCC2=O)c(Cl)c1COCC(F)(F)F` [Tembotrione], in the data set on rat [4] (setting [17]), the LEL came to 1.3 mg/kg/day, the LOAEL came out at 1.3 mg/kg/day, the NEL is below 1.3 mg/kg/day and the NOAEL was below 1.3 mg/kg/day. In the data set with rat [4] (setting [18]), the LEL came to 1.3 mg/kg/day, the LOAEL turned out to be 1.3 mg/kg/day, the NEL was below 1.3 mg/kg/day and the NOAEL is below 1.3 mg/kg/day. Also, in the data set on rat [4] (setting [19]), the LEL turned out to be 123 mg/kg/day, the LOAEL was determined as 123 mg/kg/day, the NEL was 16.2 mg/kg/day and the NOAEL stood at 16.2 mg/kg/day.
As for `CCN(CC)C(=O)SCc1ccc(Cl)cc1` [Thiobencarb], the LEL with rat [5] (setting [20]) amounted to 150 mg/kg/day; with rat [5] (setting [21]) it was 150 mg/kg/day; in the data set on rat [6] (setting [22]), 100 mg/kg/day; in the data set on rat [6] (setting [23]) it was 2 mg/kg/day. Besides, the LOAEL in the data set on rat [5] (setting [20]) was 150 mg/kg/day; with rat [5] (setting [21]), 150 mg/kg/day; with rat [6] (setting [22]), above 100 mg/kg/day; in the data set on rat [6] (setting [24]) it was 2 mg/kg/day. For the same molecule, the NEL in the data set with rat [5] (setting [20]) was 25 mg/kg/day; in the data set on rat [5] (setting [21]), 25 mg/kg/day; with rat [6] (setting [22]), 20 mg/kg/day; in the data set with rat [6] (setting [23]) it was below 2 mg/kg/day. In addition, the NOAEL is 25 mg/kg/day in the data set on rat [5] (setting [20]), 25 mg/kg/day in the data set with rat [5] (setting [21]), at least 100 mg/kg/day with rat [6] (setting [22]) and below 2 mg/kg/day with rat [6] (setting [24]).
